Consider one molecule from publication PMC6600574 (Molecules, 2019).

Each structure is given as a SMILES string.

What all share (type): in vitro ADME
The target in experiment [1] is T1, CYP 3A4 (liver microsomes) (Homo sapiens, UniProt P08684).
T1 construct: from tissue; host or cells: human liver microsomes
Put plainly: Inhibition of hepatic microsome-catalyzed CYP oxidation. As to conditions: CYP 3A4, substrate OCA369, liver microsomes; read-out: Microsomal IC50 (µM) with 95% Confidence Intervals. On the procedure: (§1) Incubations were carried out in a total volume of 100 µl of 100 mM Tris-HCl buffer (pH 7.4) in all black, flat-bottom Costar 96-well plates (Corning Incorporated, Corning, NY, USA). […] The samples were then preincubated at 37 °C for 10 min. The reactions were initiated by the addition of NADPH, and 0–10 µM 7-hydroxycoumarin was used as the standard. The fluorescent signal was measured with a Victor^2 1420 multilabel plate counter (PerkinElmer Lifesciences Wallac, Turku, Finland) with excitation and emission wavelengths of 405 and 460 nm, respectively. Fluorescence was monitored every 2 min for 40 min from where the concentration was calculated at the various time points. From these, oxidation rates (µM/min) and the relative remaining activity of the sample at different concentrations were calculated. The data were fit to sigmoidal dose-response curves with nonlinear regression, and IC50 values (the concentration at which the sample reduced the metabolism of the CYP substrate by 50%) were determined. […] This was analyzed using nonlinear equations in Graph Pad Prism, which produced IC50 values and its 95% confidence interval as the results.

Experiment [2] has as its target T2, CYP 2C19 (liver microsomes) (Homo sapiens, UniProt P33261).
T2 construct: from tissue; host or cells: human liver microsomes
The description is as above. As to conditions: CYP 2C19, substrate TFD032, liver microsomes. On the procedure: as §1

In experiment [3] the target is T3, CYP 2A6 (liver microsomes) (Homo sapiens, UniProt P11509).
T3 construct: from tissue; host or cells: human liver microsomes
T3 sequence (P11509 1-494): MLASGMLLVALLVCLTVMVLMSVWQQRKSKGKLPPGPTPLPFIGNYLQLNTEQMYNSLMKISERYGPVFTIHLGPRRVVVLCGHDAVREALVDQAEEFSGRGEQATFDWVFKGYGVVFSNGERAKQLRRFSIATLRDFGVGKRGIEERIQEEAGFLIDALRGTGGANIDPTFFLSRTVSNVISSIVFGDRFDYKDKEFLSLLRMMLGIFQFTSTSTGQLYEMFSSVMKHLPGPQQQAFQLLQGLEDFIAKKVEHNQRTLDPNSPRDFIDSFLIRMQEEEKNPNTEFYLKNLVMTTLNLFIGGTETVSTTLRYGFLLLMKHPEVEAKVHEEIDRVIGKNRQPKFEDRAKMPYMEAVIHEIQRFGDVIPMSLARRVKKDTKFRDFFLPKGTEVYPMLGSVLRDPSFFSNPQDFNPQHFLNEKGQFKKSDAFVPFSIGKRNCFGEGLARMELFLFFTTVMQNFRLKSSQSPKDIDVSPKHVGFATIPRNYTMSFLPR
The experiment is described as above. The settings on record: CYP 2A6, substrate coumarin, read-out: Microsomal IC50 (µM) with 95% Confidence Intervals. On the procedure: as §1

Experiment [4] concerns the target T4, CYP 1A2 (liver microsomes) (Homo sapiens, UniProt P05177).
T4 construct: from tissue; host or cells: human liver microsomes
The experiment is described as above. As to conditions: CYP 1A2, substrate OCA349, liver microsomes; read-out: Microsomal IC50 (µM) with 95% Confidence Intervals. On the procedure: as §1

In experiment [5] the target is T5, CYP 2D6 (liver microsomes) (Homo sapiens, UniProt P10635).
T5 construct: from tissue; host or cells: human liver microsomes
T5 sequence (P10635 whole entry): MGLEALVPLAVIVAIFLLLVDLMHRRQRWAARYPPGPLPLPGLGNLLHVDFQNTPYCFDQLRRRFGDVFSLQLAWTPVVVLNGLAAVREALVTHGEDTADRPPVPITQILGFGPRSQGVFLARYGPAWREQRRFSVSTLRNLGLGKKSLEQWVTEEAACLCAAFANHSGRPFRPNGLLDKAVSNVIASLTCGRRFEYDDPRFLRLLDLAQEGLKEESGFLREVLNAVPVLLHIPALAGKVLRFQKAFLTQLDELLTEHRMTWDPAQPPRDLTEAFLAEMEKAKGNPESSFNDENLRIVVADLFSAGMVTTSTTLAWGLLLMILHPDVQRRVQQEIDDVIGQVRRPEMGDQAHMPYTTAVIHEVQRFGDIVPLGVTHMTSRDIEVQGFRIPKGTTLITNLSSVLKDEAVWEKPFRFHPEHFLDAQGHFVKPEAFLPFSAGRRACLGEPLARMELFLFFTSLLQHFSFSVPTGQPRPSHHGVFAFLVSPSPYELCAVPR
The experiment is described as above. The settings on record: CYP 2D6, substrate TFD023, liver microsomes; read-out: Microsomal IC50 (µM) with 95% Confidence Intervals. On the procedure:
as §1

Another experiment has as its target T6, CYP 19A1 (aromatase) (Homo sapiens, UniProt P11511).
T6 construct: from tissue; host or cells: human placental microsomes
T6 sequence (P11511 1-503): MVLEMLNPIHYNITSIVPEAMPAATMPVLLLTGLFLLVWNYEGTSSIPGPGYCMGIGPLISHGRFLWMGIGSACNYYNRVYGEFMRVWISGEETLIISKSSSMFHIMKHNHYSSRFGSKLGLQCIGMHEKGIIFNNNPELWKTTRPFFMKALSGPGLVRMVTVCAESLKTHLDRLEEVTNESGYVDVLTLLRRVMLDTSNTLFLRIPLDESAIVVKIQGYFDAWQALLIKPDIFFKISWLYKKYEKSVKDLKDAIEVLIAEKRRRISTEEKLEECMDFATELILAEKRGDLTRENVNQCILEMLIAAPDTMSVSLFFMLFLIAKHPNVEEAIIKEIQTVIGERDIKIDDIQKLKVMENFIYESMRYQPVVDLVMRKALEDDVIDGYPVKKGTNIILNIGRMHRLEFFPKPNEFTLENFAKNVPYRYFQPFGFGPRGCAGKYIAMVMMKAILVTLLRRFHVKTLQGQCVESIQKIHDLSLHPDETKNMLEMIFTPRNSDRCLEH
Put plainly: Aromatase inhibition assay, tritiated water release, placental microsomes. As to conditions: CYP 19A1, substrate androstendione, verbascoside 4-500 µM. On the procedure:
The relative remaining aromatase activity was calculated by measuring the tritiated water (^3H2O) formed from the aromatization of ^3H-Androst-4-ene,3,17-dione. […] Twenty percent NADPH regenerative system was added to initiate the reaction. Reactions were terminated by the addition of 33% trichloroacetic acid. The supernatant was investigated for tritiated water formed in a scintillation mixture (Optiphase Hisafe 2, Perkin Elmer) using a Wallac microbeta 1450 TriLux liquid scintillation and luminescence counter (PerkinElmer).

T2 sequence (P33261 whole entry): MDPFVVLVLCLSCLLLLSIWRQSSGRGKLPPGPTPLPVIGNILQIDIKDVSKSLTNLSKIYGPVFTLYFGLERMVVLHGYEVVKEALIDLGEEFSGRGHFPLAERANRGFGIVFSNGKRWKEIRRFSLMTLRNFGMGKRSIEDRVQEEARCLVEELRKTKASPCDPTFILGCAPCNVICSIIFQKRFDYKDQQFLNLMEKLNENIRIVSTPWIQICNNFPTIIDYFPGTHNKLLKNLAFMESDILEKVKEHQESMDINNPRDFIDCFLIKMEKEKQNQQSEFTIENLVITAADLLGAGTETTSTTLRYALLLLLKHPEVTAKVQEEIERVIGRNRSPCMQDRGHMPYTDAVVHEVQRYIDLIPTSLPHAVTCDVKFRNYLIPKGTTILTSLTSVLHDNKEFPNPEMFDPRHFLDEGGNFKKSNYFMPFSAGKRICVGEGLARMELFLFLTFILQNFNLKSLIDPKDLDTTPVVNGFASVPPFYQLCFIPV
T1 sequence (P08684 whole entry): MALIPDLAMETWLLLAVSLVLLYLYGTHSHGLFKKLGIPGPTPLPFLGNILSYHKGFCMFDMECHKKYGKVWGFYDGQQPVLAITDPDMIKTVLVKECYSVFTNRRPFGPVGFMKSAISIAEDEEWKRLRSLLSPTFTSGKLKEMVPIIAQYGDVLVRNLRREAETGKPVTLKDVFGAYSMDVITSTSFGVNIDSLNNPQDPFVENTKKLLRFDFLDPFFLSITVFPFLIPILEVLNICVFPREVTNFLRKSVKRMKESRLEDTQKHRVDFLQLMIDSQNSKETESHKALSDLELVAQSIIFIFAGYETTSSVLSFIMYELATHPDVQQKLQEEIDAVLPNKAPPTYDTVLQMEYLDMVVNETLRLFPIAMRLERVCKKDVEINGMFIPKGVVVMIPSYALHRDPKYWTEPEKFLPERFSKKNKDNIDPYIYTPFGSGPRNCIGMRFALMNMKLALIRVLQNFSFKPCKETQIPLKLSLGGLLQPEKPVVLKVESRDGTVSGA
T4 sequence (P05177 whole entry): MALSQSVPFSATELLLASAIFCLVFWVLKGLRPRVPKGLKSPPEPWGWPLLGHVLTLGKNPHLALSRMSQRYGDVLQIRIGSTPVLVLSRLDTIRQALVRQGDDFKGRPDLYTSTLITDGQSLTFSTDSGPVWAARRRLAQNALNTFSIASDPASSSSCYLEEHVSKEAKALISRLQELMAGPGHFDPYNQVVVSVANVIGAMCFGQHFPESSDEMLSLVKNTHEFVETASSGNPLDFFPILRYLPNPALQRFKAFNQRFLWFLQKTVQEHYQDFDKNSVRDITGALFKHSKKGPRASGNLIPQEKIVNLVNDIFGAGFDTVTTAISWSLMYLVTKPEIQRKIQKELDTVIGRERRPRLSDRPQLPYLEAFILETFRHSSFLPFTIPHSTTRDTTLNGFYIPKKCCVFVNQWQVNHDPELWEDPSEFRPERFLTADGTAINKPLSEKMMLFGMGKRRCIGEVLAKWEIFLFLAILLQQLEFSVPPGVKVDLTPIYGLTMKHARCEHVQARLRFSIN

As for `C[C@@H]1O[C@@H](O[C@@H]2[C@@H](O)[C@H](OCCc3ccc(O)c(O)c3)O[C@H](CO)[C@H]2OC(=O)/C=C/c2ccc(O)c(O)c2)[C@H](O)[C@H](O)[C@H]1O` [Verbascoside], the IC50 was determined as 76 µM in experiment [1], 135 µM in experiment [3], 24 µM in experiment [4] and 96 µM in experiment [5]. Besides, the “Microsomal IC50 (µM) with 95% Confidence Intervals” value is “Stimulation ^c” in experiment [2], “weak ability to stimulate” in experiment [2] (listed as verbascoside), “No inhibition” at CYP 19A1 (aromatase) and “did not inhibit” at CYP 19A1 (aromatase) (listed as verbascoside).
